Reference: patent US10154813B1, “Method and apparatus for patient skin color monitoring and drug efficacy measurement” (priority 2017, dated 2018)
“And” between values parts separate entries of the source, which are not always exact repeats. Identical values can stand only once.

Tested on: microvascular endothelium (skin, right arm, anterior position) of Congestive Heart Failure patients
Test: Skin colorimetry (a, b, L) before and after application of “μ” in Congestive Heart Failure patients on Valsartan, monthly for 9 months
Assay type: in vivo, human
Parameters: key to a. Wet after “μ”: a = red/green colour coordinate (colorimeter); key to b (Wet): b = yellow/blue colour coordinate (colorimeter)
Conditions: for L / a / b: baseline before μ; for L (Wet) / a. Wet after “μ” / b (Wet): wet after μ
Source text: As stated above, one available quantitative color system is the L*a*b* color space or Hunter L/a/b color space, which can be visualized as a rectangular 3D coordinate system. L indicates lightness, a is the red/green coordinate, and b is the yellow/blue coordinate. L can have a value from 0 (black) to 100 (perfect reflection). The a and b axes have no numerical limits. Coordinate a is positive when red, and negative when green. Positive b is yellow, and negative b is blue. Colors can be described numerically using numerical values for L, a, and b. Differences between two colors can be quantified for each of the individual L/a/b values (ΔL, Δa, Δb). Overall differences between two colors can be derived numerically based on the three Δ values.
μ=drug applied before colorimeter and/or spectrophotometer measurements.
L1, a1, b1=Initial measurement.
L2, a2, b2=Measurement with μ applied. L2−L1=ΔLμ(L2 minus L1)=change in lightness and darkness(+=lighter,−=darker) a2−a1=Δaμ(a2 minus a1)=change in red and green(+=redder,−=greener) b2−b1=Δbμ(b2 minus b1)=change in yellow and blue(+=yellower,−=bluer)
With reference to the tables below and to FIG. 18, the three different patients (Patient A, Patient B, and Patient C) had new diagnosis of Congestive Heart Failure (CHF). Patient A, B, C have diastolic and systolic heart failure with an ejection fraction of 35% with normal coronary artery disease by angiography. All three patients were started on an angiotensin receptor blocker Valsartan and followed continuously every month for 9 months. The a, b, L were calculated before and after the “μ” has been applied shown in color red. The blue indicates the baseline. At the initiation of the CHF medication Valsartan, the patient has a normal response of the microvascular endothelium after the application of “μ” in the calculations of a, b, L. All colorimetric and spectrophotometric calculations are performed at the same location on the right arm, in the anterior position in all three patients continuously for 9 months. The titration of Valsartan was maximized in all three patients. […] This occurs because it is the desired effect of the CHF medication in the above patients over the period of 9 months. The current standard of care is to improve the heart function in CHF. The cardiologist lowers the ionotropic and chronotropic effect of the heart in CHF patients. The above methodology allows for the appropriate and desired effect in being able to titrate the medication and know how much medicine to administer to the patient by either decreasing or increasing the Valsartan dose. This is performed to achieve the necessary effect of pharmacotherapy with limiting the exacerbation of heart failure symptoms in such patients. It allows for healthcare providers to also know if the effects of the medications are adequate and they are in fact working appropriately on the microscopic endothelium level of the patient. As the months progressed in the patients above, the red line calculations indicate a decreased microvascular endothelial flow. This is evaluated by measuring a decrease in the a shift.
This correlates with a decrease in the ionotropic and chronotropic effect of the heart in these patients. This is the desired effect and outcome that the cardiologist is trying to achieve. The calculation of a, b, L, after “μ” is applied is objectively calculated in these CHF patients, allowing for the proper titration of maximum medication administration while limiting the side effects of the medications concurrently.

CCCCC(=O)N(Cc1ccc(-c2ccccc2-c2nnn[nH]2)cc1)[C@H](C(=O)O)C(C)C [Valsartan]
L (Patient A, April 2017): 70.87
a (Patient A, April 2017): 5.05
b (Patient A, April 2017): 16.72
L (Patient A, December 2016): 70.63
a (Patient A, December 2016): 5.20
b (Patient A, December 2016): 16.61
L (Patient A, February 2017): 70.24
a (Patient A, February 2017): 5.12
b (Patient A, February 2017): 15.42
L (Patient A, January 2017): 71.68
a (Patient A, January 2017): 4.70
b (Patient A, January 2017): 14.67
L (Patient A, July 2017): 71.63
a (Patient A, July 2017): 5.48
b (Patient A, July 2017): 14.62
L (Patient A, June 2017): 69.91
a (Patient A, June 2017): 5.02
b (Patient A, June 2017): 15.64
L (Patient A, March 2017): 70.42
a (Patient A, March 2017): 5.14
b (Patient A, March 2017): 16.14
L (Patient A, May 2017): 71.99
a (Patient A, May 2017): 4.98
b (Patient A, May 2017): 15.47
L (Patient A, November 2016): 70.10
a (Patient A, November 2016): 5.59
b (Patient A, November 2016): 15.39
L (Wet) (Patient A, April 2017): 70.72
a. Wet after “μ” (Patient A, April 2017): 4.54
b (Wet) (Patient A, April 2017): 16.78
L (Wet) (Patient A, December 2016): 69.98
a. Wet after “μ” (Patient A, December 2016): 6.35
b (Wet) (Patient A, December 2016): 16.81
L (Wet) (Patient A, February 2017): 70.12
a. Wet after “μ” (Patient A, February 2017): 6.08
b (Wet) (Patient A, February 2017): 16.44
L (Wet) (Patient A, January 2017): 71.76
a. Wet after “μ” (Patient A, January 2017): 6.48
b (Wet) (Patient A, January 2017): 16.48
L (Wet) (Patient A, July 2017): 70.04
a. Wet after “μ” (Patient A, July 2017): 4.46
b (Wet) (Patient A, July 2017): 16.31
L (Wet) (Patient A, June 2017): 70.54
a. Wet after “μ” (Patient A, June 2017): 4.43
b (Wet) (Patient A, June 2017): 15.89
L (Wet) (Patient A, March 2017): 69.42
a. Wet after “μ” (Patient A, March 2017): 4.64
b (Wet) (Patient A, March 2017): 16.85
L (Wet) (Patient A, May 2017): 69.79
a. Wet after “μ” (Patient A, May 2017): 4.20
b (Wet) (Patient A, May 2017): 15.62
L (Wet) (Patient A, November 2016): 68.40
a. Wet after “μ” (Patient A, November 2016): 7.06
b (Wet) (Patient A, November 2016): 16.16
L (Patient B, April 2017): 73.95
a (Patient B, April 2017): 3.25
b (Patient B, April 2017): 15.34
L (Patient B, December 2016): 72.77
a (Patient B, December 2016): 3.36
b (Patient B, December 2016): 4.88
L (Patient B, February 2017): 74.52
a (Patient B, February 2017): 3.06
b (Patient B, February 2017): 13.98
L (Patient B, January 2017): 74.06
a (Patient B, January 2017): 2.66
b (Patient B, January 2017): 15.09
L (Patient B, July 2017): 74.23
a (Patient B, July 2017): 4.20
b (Patient B, July 2017): 14.14
L (Patient B, June 2017): 74.05
a (Patient B, June 2017): 3.85
b (Patient B, June 2017): 14.35
L (Patient B, March 2017): 74.43
a (Patient B, March 2017): 3.09
b (Patient B, March 2017): 14.08
L (Patient B, May 2017): 73.52
a (Patient B, May 2017): 3.40
b (Patient B, May 2017): 15.02
L (Patient B, November 2016): 73.44
a (Patient B, November 2016): 4.15
b (Patient B, November 2016): 13.69
L (Wet) (Patient B, April 2017): 72.58
a. Wet after “μ” (Patient B, April 2017): 3.03
b (Wet) (Patient B, April 2017): 15.69
L (Wet) (Patient B, December 2016): 73.59
a. Wet after “μ” (Patient B, December 2016): 4.04
b (Wet) (Patient B, December 2016): 15.27
L (Wet) (Patient B, February 2017): 72.56
a. Wet after “μ” (Patient B, February 2017): 3.3
b (Wet) (Patient B, February 2017): 14.4
L (Wet) (Patient B, January 2017): 74.23
a. Wet after “μ” (Patient B, January 2017): 3.37
b (Wet) (Patient B, January 2017): 15.38
L (Wet) (Patient B, July 2017): 72.54
a. Wet after “μ” (Patient B, July 2017): 2.25
b (Wet) (Patient B, July 2017): 14.39
L (Wet) (Patient B, June 2017): 72.47
a. Wet after “μ” (Patient B, June 2017): 2.88
b (Wet) (Patient B, June 2017): 15.29
L (Wet) (Patient B, March 2017): 72.62
a. Wet after “μ” (Patient B, March 2017): 3.29
b (Wet) (Patient B, March 2017): 15.85
L (Wet) (Patient B, May 2017): 73.47
a. Wet after “μ” (Patient B, May 2017): 3.71
b (Wet) (Patient B, May 2017): 15.54
L (Wet) (Patient B, November 2016): 70.43
a. Wet after “μ” (Patient B, November 2016): 4.89 and 4.79
b (Wet) (Patient B, November 2016): 15.14
L (Patient C, April 2017): 73.05
a (Patient C, April 2017): 3.16
b (Patient C, April 2017): 16.12
L (Patient C, December 2016): 75.47
a (Patient C, December 2016): 2.84
b (Patient C, December 2016): 13.73
L (Patient C, February 2017): 73.55
a (Patient C, February 2017): 3.64
b (Patient C, February 2017): 14.96
L (Patient C, January 2017): 74.63
a (Patient C, January 2017): 3.93
b (Patient C, January 2017): 15.73
L (Patient C, July 2017): 75.00
a (Patient C, July 2017): 3.55
b (Patient C, July 2017): 14.75
L (Patient C, June 2017): 74.45
a (Patient C, June 2017): 3.44
b (Patient C, June 2017): 14.63
L (Patient C, March 2017): 74.06
a (Patient C, March 2017): 3.20
b (Patient C, March 2017): 14.54
L (Patient C, May 2017): 75.26
a (Patient C, May 2017): 3.50
b (Patient C, May 2017): 15.22
L (Patient C, November 2016): 73.84
a (Patient C, November 2016): 3.35
b (Patient C, November 2016): 14.01
L (Wet) (Patient C, April 2017): 72.89
a. Wet after “μ” (Patient C, April 2017): 2.95
b (Wet) (Patient C, April 2017): 17.26
L (Wet) (Patient C, December 2016): 72.57
a. Wet after “μ” (Patient C, December 2016): 4.84
b (Wet) (Patient C, December 2016): 14.8
L (Wet) (Patient C, February 2017): 72.41
a. Wet after “μ” (Patient C, February 2017): 3.07
b (Wet) (Patient C, February 2017): 15.66
L (Wet) (Patient C, January 2017): 74.12
a. Wet after “μ” (Patient C, January 2017): 3.18
b (Wet) (Patient C, January 2017): 15.31
L (Wet) (Patient C, July 2017): 74.72
a. Wet after “μ” (Patient C, July 2017): 2.3
b (Wet) (Patient C, July 2017): 14.39
L (Wet) (Patient C, June 2017): 72.13
a. Wet after “μ” (Patient C, June 2017): 2.75
b (Wet) (Patient C, June 2017): 15.6
L (Wet) (Patient C, March 2017): 73.55
a. Wet after “μ” (Patient C, March 2017): 3.05
b (Wet) (Patient C, March 2017): 13.67
L (Wet) (Patient C, May 2017): 73.69
a. Wet after “μ” (Patient C, May 2017): 3.1
b (Wet) (Patient C, May 2017): 15.17
L (Wet) (Patient C, November 2016): 71.42
a. Wet after “μ” (Patient C, November 2016): 4.99
b (Wet) (Patient C, November 2016): 14.01
effect on flow to the microvascular circulation of the endothelium (a shift after μ) (Patients A, B, C, at rest, over 9 months, maximized titration): a decrease in the flow to the microvascular circulation of the endothelium at rest
